Data taken from patent US20040265323A1, “Compositions comprising pathogen elicited epithelial chemoattractant (eicosanoid hepoxilin A3), inhibitors thereof and methods of use thereof” (priority 2003, published 2004).
Entries after “also recorded” stand apart in the source; their conditions may differ.

Tests used:
Type in all cases: cell-based, human
[1] = test system: PMN transmigration across T84 cell monolayers; experiment: PMN transepithelial migration to imposed gradients of lipids across T84 monolayers; conditions: imposed gradients across T84 cell monolayers, basolateral-to-apical
Experimental: Crude preparations of PEEC were collected from the apical surface of polarized T84 cell monolayers following infection with S. typhimurium SL1344 as previously described (McCormick et al., 1998). For these experiments, T84 intestinal epithelial cells (passages 45 to 65) were grown in a 1:1 mixture of Dulbecco-Vogt modified Eagles medium and Ham's F-12 medium supplemented with 15 mM Hepes buffer (pH 7.5), 14 mM NaHCO3, 40 mg/liter penicillin, 8 mg/liter ampicillin, 90 mg/liter streptomycin and 5% newborn calf serum. Polarized monolayers of T84 cells were formed and maintained on 0.33 cm^2 ring-supported collagen-coated polycarbonate filters (Costar Corp., Cambridge, Mass.) as previously described (Madara et al., 1992) with recently detailed modifications (Dharmsathaphorn and Madara, 1990). T84 cell monolayers reached a steady-state resistance 4 to 6 days after plating with some variability largely related to cell passage number. Cell culture inserts of inverted monolayers, used to study transmigration of PMN in the physiological basolateral-to-apical direction, were constructed as previously described (Madara et al., 1992; Dharmsathaphorn and Madara, 1990; Nash et al., 1991).
(§1) It was further examined if hepoxilin A3 acts in a gradient fashion to drive PMN migration from the basolateral to the apical epithelial surface. For these experiments, the physiologically directed (basolateral-to-apical) PMN transepithelial migration assay using cell culture inserts of inverted T84 monolayers has been used (McCormick et al., 1993; Parkos et al., 1992). Human PMN were isolated from normal volunteers, as described elsewhere (Parkos et al., 1992; Henson and Oades, 1975). PMN transmigration results were represented as PMN cell equivalents (CE) derived from a daily standard PMN dilution curve. PMN which completely traversed the monolayer were represented as the number of PMN (CE/ml in a total volume of 1 ml). Values were expressed as the mean and SD of an individual experiment done in triplicate repeated at least 3 times.
Arachidonic acid is the initial substrate used by a variety of metabolic pathways involving lipoxygenase (LO) activities—enzymes that add hydroxyl groups at specific carbon atoms of this 20-carbon fatty acid. […] Therefore, in addition to hepoxilin A3, a wide range of arachidonic acid metabolites for their ability to incite the transmigration of PMNs across T84 monolayers in vitro was examined (Table 1). […] This is consistent with previous reports that LTB4 is capable of inducing PMN transmigration.

PMN [2] = experiment: PMN intracellular Ca2+ mobilization; conditions: 5 μg/ml, FIG. 4B
Text: Further, crude PEEC preparations were collected from postinfected T84 cells monolayers. Samples were first passed through an Amicon ultra-filtration apparatus (Millipore Corp.; Bedford, Mass.) fitted with a 2,000 Da cut-off membrane. Filtrate components were bound to a Backerbond spe™ octadecyl extraction column (J. T. Baker; Philipsburg, N.J.) that was subsequently eluted with water, hexane, and finally methanol. The methanol fraction was dried under vacuum and resuspended in 50:50 (vol:vol) methanol:2 mM Tris HCl (pH 7.5) and injected onto a Vydac C18 (10 μm; 300 Å) semi-preparative column ([…]) equilibrated with 2 mM Tris-HCl (pH 7.5). A methanol gradient of 1-10% over 10 minutes, then 10-60% over 25 minutes, followed by 60-100% over 45 minutes (all at room temperature) was used to isolate active PEEC fractions. Active fractions, having no detectable absorbance at 280 nm and weak absorbance at 214 nm, were analyzed using a Genesis C18 (4 μm, 120 Å) analytical HPLC column (4.6×150 mm) equilibrated with 5 mM triethylamine/acetic acid (pH 7.2). […] (FIG. 2A and B).
(§2) To substantiate the notion that hepoxilin A3 was in fact the molecule responsible for PEEC bioactivity, it was examined whether synthetic hepoxilin A3 (BIOMOL, Plymouth Meeting, Pa.) could recapitulate PEEC bioactivity. […] Thus, authentic hepoxilin A3 recapitulates all known aspects of PEEC bioactivity consistent with the notion that hepoxilin A3 is in fact PEEC's active component.

PMN [3] = experiment: PMN degranulation assessed by elastase release
Text: as §2

IL-8 secretion = IL-8 secretion by S. typhimurium infected T84 cell monolayers; conditions: S. typhimurium infected T84, caffeic acid 22 μM
[4] = test system: S. typhimurium-induced PMN transepithelial migration, T84 cells; experiment: Inhibition of S. typhimurium-induced PMN transepithelial migration across T84 monolayers; conditions: for inhibition of S. typhimurium-induced PMN transepithelial migration: T84 incubated 1 hour with inhibitor, FIG. 9
Text: as §1, with “PMN transmigration results were represented as PMN cell equivalents (CE) derived from a daily standard PMN dilution curve.” left out
Hepoxilin A3 is formed via the 12-lipoxygenase (LO) metabolism pathway of arachidonic acid. Therefore, the involvement of the 12-LO pathway in the ability of the enteric pathogen, S. typhimurium, to induce PMN transepithelial migration and elicit PEEC secretion was tested. […] For 12-LO inhibition, HBSS(+)-washed T84 cell monolayers were incubated in the presence baicalein [stock concentration at 1 mM in DMSO] for 48 hours at 37° C. Subsequently, S. typhimurium SL1344 was added to the apical surface of the T84 monolayers and after an incubation of 1 hour at 37° C., the cells were washed free of non-adherent bacteria and then processed for the PMN transmigration assay. […] For 5-LO inhibition, the T84 cells were washed with HBSS(+) and then were incubated for 24 hours in the presence of caffeic acid (stock concentration at 22 mM in DMSO). Both inhibitors were purchased form Biomol, Plymouth Meeting, Pa.
In each instance, the T84 cell monolayers were incubated for […] in the presence of the inhibitor prior to the addition of S. typhimurium.

[5] = test system: PEEC/hepoxilin A3 secretion; experiment: Apical PEEC/hepoxilin A3 release from S. typhimurium infected T84 cell monolayers
Text: T84 cell monolayers were infected with S. typhimurium in the absence or presence of the 12-LO enzyme inhibitor and apical supernatants were examined for PEEC bioactivity. […] Moreover, since it had been previously shown that S. typhimurium via its effector SipA initiates an ARF6-dependent lipid-signaling cascade that directs the activation of PKC and release of PEEC, it was further examined if blocking PKC activity (which would occur upstream of 12-LO) also corresponds with a reduction in hepoxilin A3 bioactivity and release, as one would predict.

| Structure (SMILES) | PMN transepithelial migration (PEEC activity) induced by added lipid [1] | also measured |
| --- | --- | --- |
| CCCCC/C=C\C[C@@H](O)/C=C/C=C/C=C/[C@@H](O)CCCC(=O)O (relative stereo) [trans LTB4] | failed to support events observed with hepoxilin A3 | – |
| CCCCC/C=C\C/C=C\C/C=C\C=C\C(=O)CCCC(=O)O [5-KETE] | failed to effect a transmigration of PMNs | – |
| CCCCC/C=C\C[C@@H](O)/C=C/C=C\C/C=C\CCCC(=O)O [12(R)-HETE] | no PMN transmigration activity was observed | intracellular Ca2+ in PMN (PMN [2]): failed to cause an increase in Ca^2+ mobilization |
| CCCCC/C=C\C[C@H](O)/C=C/C=C\C/C=C\CCCC(=O)O [12(S)-HETE] | no PMN transmigration activity was observed | – |
| CCCCC[C@H](O)/C=C/C=C\C/C=C\C/C=C\CCCC(=O)O [15(S)-HETE] | only a low activity of PMN transmigration was observed | – |
| CCCCC/C=C\C/C=C\C/C=C\C/C=C\CCCC(=O)O [Arachidonic acid] | could enhance the amount of PMN transmigration | – |
| CCCCC/C=C\C[C@@H](O)/C=C/C=C/C=C\[C@@H](O)CCCC(=O)O [LTB4] | – | PMN degranulation (PMN [3]): causes activation and degranulation |
| O=C(O)/C=C/c1ccc(O)c(O)c1 [caffeic acid] | – | IL-8 secretion (IL-8 secretion): 558 ± 26 pg/mL; S. typhimurium-induced PMN transepithelial migration with lipoxygenase inhibitor ([4]; T84 pre-treated: baicalein 48 hours, caffeic acid 24 hours): failed to prevent S. typhimurium-induced PMN transepithelial migration; also recorded: no inhibition |
| COc1ccc2c(c[n+](C)c3c4cc5c(cc4ccc23)OCO5)c1OC.[Cl-] [chelerethyrine chloride] | – | PEEC/hepoxilin A3 release ([5]; 5 μM prior to infection with wild-type S. typhimurium): < 1.0 pmol |
| C=C(CC)C(=O)c1ccc(OCC(=O)O)c(Cl)c1Cl [ethacrynic acid] | – | inhibition of S. typhimurium-induced PMN transepithelial migration [4]: significantly inhibited |
| CCCCC/C=C\C[C@@H]1O[C@H]1C(O)/C=C\C/C=C\CCCC(=O)O (stereo partly shown) [hepoxilin B3] | inactive; also recorded: failed to support events observed with hepoxilin A3 | – |
| CCCCC/C=C\C/C=C\CCCCCCCC(=O)O [linoleic acid] | failed to demonstrate any PEEC activity | – |
| CCCN(CCC)S(=O)(=O)c1ccc(C(=O)O)cc1 [probenecid] | – | inhibition of S. typhimurium-induced PMN transepithelial migration [4]: significantly inhibited |
| CC[C@]1(O)C[C@@H]2CN(CCc3c([nH]c4ccccc34)[C@@](C(=O)OC)(c3cc4c(cc3OC)N(C)[C@H]3[C@@](O)(C(=O)OC)[C@H](OC(C)=O)[C@]5(CC)C=CCN6CC[C@]43[C@@H]65)C2)C1 [vinblastine] | – | inhibition at 0.0005 µM ([5]; Homo sapiens, ~0.5 nM, pathogen-induced, T84, read-out: inhibition of hepoxilin A3 secreted): ~60% |
